Data taken from US7452691B2, “Device and method for detecting antibiotic inactivating enzymes” (priority 2005, dated 2008).

How the values were obtained:
Format in all cases: cell-based
OXA-5 = OXA-5 (Pseudomonas aeruginosa, UniProt Q00982); test: Indirect reagent disk test, antibiotic inactivation; settings: enzyme OXA-5; indirect method
Description: (§2) The indirect method was performed essentially as described in Example 4, except the antibiotic disks were as indicated. An indentation of a zone of inhibition around the antibiotic dish was interpreted as positive for presence of antibiotic-inactivating factor.

OXA-6 = test: as above; settings: enzyme OXA-6; indirect method
L-1 = L-1 (Stenotrophomonas maltophilia, UniProt P52700); test: as above; settings: enzyme L-1; indirect method; further: key: P, positive; N, negative; WP, weak positive (slight flattening); ?, results were questionable
L-1, sequence (P52700 34-290): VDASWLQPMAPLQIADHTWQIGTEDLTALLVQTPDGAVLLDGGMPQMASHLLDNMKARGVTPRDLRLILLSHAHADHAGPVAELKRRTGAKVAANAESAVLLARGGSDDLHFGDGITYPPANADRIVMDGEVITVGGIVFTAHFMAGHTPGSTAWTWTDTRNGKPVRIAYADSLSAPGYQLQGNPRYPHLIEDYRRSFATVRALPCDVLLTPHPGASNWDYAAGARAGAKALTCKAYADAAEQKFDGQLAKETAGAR
Description: (§1) • 1. […] Performing and Interpreting the Test • 1.

PSE-1 = PSE-1 (Pseudomonas aeruginosa, UniProt Q03170); test: as above; settings: enzyme PSE-1; indirect method
PSE-1, sequence (Q03170 18-288): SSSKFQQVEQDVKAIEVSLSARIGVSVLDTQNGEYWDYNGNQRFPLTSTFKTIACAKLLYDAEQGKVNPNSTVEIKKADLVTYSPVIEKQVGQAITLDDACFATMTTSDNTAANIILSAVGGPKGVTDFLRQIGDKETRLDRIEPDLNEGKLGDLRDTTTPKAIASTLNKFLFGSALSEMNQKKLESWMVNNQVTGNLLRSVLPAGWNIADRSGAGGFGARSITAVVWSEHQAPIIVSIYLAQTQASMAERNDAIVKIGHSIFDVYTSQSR
Description: as §1

OXA-4 = test: as above; settings: enzyme OXA-4; indirect method
Description: as §2

OXA-2 = OXA-2 (Escherichia coli, UniProt P0A1V9); test: as above; settings: enzyme OXA-2; indirect method
OXA-2, sequence (P0A1V9 22-275): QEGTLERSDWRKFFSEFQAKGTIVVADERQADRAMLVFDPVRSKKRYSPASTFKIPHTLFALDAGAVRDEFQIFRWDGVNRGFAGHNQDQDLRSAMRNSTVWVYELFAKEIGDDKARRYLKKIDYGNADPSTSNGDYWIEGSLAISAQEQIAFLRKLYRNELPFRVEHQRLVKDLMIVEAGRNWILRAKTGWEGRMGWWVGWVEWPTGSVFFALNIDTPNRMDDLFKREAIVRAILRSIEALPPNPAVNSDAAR
Description: as §2

FOX-1 = test: as above; settings: enzyme FOX-1; indirect method
Description: (§3) A solution of equal parts of physiological saline and Tris EDTA (Sigma Chemicals) is made. • 2. A 20 microliter aliquot of the permeabilizing agent solution was placed onto a filter paper disk and allowed to dry. […] The filter paper disk impregnated with the permeabilizing agent was rehydrated with 20 microliters of sterile physiological saline. • 2. Using a cotton swab or loop, a test organism was rubbed onto the rehydrated disk. • 3. A Mueller Hinton Agar plate was inoculated with a 0.5 McFarland of E. coli ATCC 25922. • 4. A cefoxitin disk was placed onto the surface of the agar plate. The rehydrated disk inoculated with the test organism next was placed next to the cefoxitin disk, at a distance of about 0.5-1.0 mm. • 5. The agar plate was incubated at 37° C. for about 16 hours, or overnight. • 6. Distortion of the cefoxitin zone was interpreted as a positive result (i.e., the presence of an antibiotic-inactivating factor was detected), whereas lack of distortion of the cefoxitin zone was interpreted as a negative result.
as §2

OXA-7 = OXA-7 (Escherichia coli, UniProt P35695); test: as above; settings: enzyme OXA-7; indirect method
OXA-7, sequence (P35695 21-266): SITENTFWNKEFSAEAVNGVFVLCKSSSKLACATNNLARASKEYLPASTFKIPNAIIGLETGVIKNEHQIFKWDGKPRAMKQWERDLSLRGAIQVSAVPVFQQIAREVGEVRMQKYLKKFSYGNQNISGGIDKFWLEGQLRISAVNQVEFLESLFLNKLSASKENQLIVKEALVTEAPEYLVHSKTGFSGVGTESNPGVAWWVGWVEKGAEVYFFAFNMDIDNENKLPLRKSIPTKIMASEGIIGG
Description: as §3
An indentation of a zone of inhibition around the antibiotic dish was interpreted as positive for presence of antibiotic-inactivating factor.

OXA-3 = OXA-3 (Pseudomonas aeruginosa, UniProt Q51429); test: as above; settings: enzyme OXA-3; indirect method
OXA-3, sequence (Q51429 22-275): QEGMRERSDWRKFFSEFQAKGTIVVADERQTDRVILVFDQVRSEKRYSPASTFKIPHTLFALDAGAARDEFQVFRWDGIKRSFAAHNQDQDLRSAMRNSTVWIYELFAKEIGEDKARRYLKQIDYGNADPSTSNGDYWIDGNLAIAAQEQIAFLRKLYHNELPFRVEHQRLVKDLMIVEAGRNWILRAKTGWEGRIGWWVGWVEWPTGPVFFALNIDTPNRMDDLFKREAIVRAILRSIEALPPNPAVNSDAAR
Description: as §3, §2

E. coli V1104 = test: Spectrophotometric hydrolysis assay of β-lactamase released by permeabilizing agent, nitrocefin as substrate
Description: H., et al., A.A.C. 1:283-288 (1972). […] The nitrocefin was prewarmed to 37° C.
The experiment in Example 1 was repeated using E. coli V1104 to evaluate a variety of permeabilizing agents. Nitrocefan was the hydrolysis substrate.

SHV-1 = SHV-1 (Klebsiella pneumoniae, UniProt P0AD64); test: Indirect reagent disk test, antibiotic inactivation; settings: enzyme SHV-1; indirect method
SHV-1, sequence (P0AD64 22-286): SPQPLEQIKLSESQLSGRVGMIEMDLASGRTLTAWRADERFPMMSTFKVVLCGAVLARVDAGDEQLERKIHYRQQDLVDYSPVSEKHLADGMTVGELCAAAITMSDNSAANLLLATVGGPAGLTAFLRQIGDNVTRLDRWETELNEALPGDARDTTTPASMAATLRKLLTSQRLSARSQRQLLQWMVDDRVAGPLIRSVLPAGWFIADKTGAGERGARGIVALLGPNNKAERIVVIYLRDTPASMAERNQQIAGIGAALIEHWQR
Description: as §3, §2

OXA-5, sequence (Q00982 20-267): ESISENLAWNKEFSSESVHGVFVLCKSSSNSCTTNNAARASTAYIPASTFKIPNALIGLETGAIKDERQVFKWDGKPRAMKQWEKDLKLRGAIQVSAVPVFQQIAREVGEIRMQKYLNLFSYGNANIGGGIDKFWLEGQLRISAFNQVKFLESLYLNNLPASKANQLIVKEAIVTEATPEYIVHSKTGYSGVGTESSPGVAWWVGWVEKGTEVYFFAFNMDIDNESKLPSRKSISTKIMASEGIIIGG

Q: For `CC(C)(O/N=C(\C(=O)N[C@@H]1C(=O)N2C(C(=O)[O-])=C(C[n+]3ccccc3)CS[C@H]12)c1csc(N)n1)C(=O)O` [Ceftazidime, ceftazidime], which “Reagent disk test result (indentation of inhibition zone = antibiotic inactivation)” value (OXA-5) is on record?
A: Its value is “N”.

Q: And the “Reagent disk test result (indentation of inhibition zone = antibiotic inactivation)” value (OXA-6)?
A: Its value is “N”.

Q: What about the “Reagent disk test result (indentation of inhibition zone = antibiotic inactivation)” value (L-1) of the same compound?
A: Its value is “N”.

Q: And the “Reagent disk test result (indentation of inhibition zone = antibiotic inactivation)” value (PSE-1)?
A: The value was “N”.

Q: And the “Reagent disk test result (indentation of inhibition zone = antibiotic inactivation)” value (OXA-4)?
A: Its value is “N”.

Q: And the “Reagent disk test result (indentation of inhibition zone = antibiotic inactivation)” value (OXA-2)?
A: Its value is “N”.

Q: What about the “Reagent disk test result (indentation of inhibition zone = antibiotic inactivation)” value (FOX-1) of the same compound?
A: The value was “N”.

Q: And the “Reagent disk test result (indentation of inhibition zone = antibiotic inactivation)” value (OXA-7)?
A: The value was “N”.

Q: What about the “Reagent disk test result (indentation of inhibition zone = antibiotic inactivation)” value (OXA-3) of the same compound?
A: Its value is “N”.

Q: What about the “Units of β-lactamase Activity (Nitrocefin as substrate)” value (E. coli V1104) of the same compound?
A: Its value is 196.

Q: And the “Reagent disk test result (indentation of inhibition zone = antibiotic inactivation)” value (SHV-1)?
A: The value was “N”.
